According to patent US20140309210A1, “INDAZOLE COMPOUNDS, COMPOSITIONS AND METHODS OF USE THEREOF” (Genentech, Inc., priority 2011, published 2014):

target: T1, purified ITK (Invitrogen PV3875) (Homo sapiens, UniProt Q08881); test: ITK peptide phosphorylation assay (Caliper LabChip or LCMS); assay type: biochemical; conditions: Table 1, Examples 141-279
T1 construct: purchased Invitrogen PV3875
T1 sequence (Q08881 1-620): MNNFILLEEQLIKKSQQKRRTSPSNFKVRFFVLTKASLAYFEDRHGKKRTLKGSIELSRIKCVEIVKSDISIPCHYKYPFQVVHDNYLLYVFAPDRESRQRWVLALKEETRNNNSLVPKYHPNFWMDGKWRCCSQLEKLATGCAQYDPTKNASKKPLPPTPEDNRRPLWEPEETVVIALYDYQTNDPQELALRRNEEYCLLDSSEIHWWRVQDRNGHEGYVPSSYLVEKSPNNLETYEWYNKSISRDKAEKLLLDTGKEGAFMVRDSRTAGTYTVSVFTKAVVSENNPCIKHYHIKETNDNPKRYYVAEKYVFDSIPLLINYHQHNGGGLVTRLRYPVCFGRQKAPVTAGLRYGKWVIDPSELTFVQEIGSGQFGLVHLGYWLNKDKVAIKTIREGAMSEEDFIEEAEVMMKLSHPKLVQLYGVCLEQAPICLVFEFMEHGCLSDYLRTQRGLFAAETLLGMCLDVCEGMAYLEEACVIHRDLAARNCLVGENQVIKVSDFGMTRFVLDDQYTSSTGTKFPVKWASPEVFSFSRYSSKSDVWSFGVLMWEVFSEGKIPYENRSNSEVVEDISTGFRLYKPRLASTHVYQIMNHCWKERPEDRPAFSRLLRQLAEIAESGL
Summary of the method: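 Purified human ITK peptide phosphorylation, quenched with EDTA (50 mM final) for Caliper LabChip separation or TCA (5% v/v final) for UPLC-MS/MS MRM quantification. Ki derived via Morrison tight-binding equation, corrected for competitive inhibition using ATP concentration relative to Km,app.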

Q: Which Ki does the source give for `Cc1cc2c(C(=O)Nc3cnn(Cc4cccc(C#N)c4)c3)n[nH]c2cc1-c1cncc(C#N)c1` [Example 148, N-[1-[(3-cyanophenyl)meth-yl]pyrazol-4-yl]-6-(5-cyano-3-pyridyl)-5-methyl-1H-indazole-3-carboxamide] here?
A: 57.2 nM

Q: For `Cc1cc2c(C(=O)Nc3cnn(Cc4cccc(C#N)c4)c3)n[nH]c2cc1-c1cccnc1` [Example 149, N-[1-[(3-cyanophenyl)meth-yl]pyrazol-4-yl]-5-methyl-6-(3-pyridyl)-1H-indazole-3-carboxamide], which Ki is on record?
A: 71.1 nM

Q: For `Cc1cc2c(C(=O)Nc3cnn(Cc4cccc(C#N)c4)c3)n[nH]c2cc1-c1ccc(N)nc1` [Example 150, 6-(6-amino-3-pyridyl)-N-[1-[(3-cyanophenyl)meth-yl]pyrazol-4-yl]-5-methyl-1H-indazole-3-carboxamide], which Ki is on record?
A: 20.1 nM

Q: How did the Ki turn out when `Cc1cc2c(C(=O)Nc3cnn(Cc4cccc(C#N)c4)c3)n[nH]c2cc1-c1cn[nH]c1` [Example 151, N-[1-[(3-cyanophenyl)meth-yl]pyrazol-4-yl]-5-methyl-6-(1H-pyrazol-4-yl)-1H-indazole-3-carboxamide] was run?
A: 16.4 nM

Q: Which Ki does the source give for `N#Cc1cccc(Cn2cc(NC(=O)c3n[nH]c4cc(-c5ccc(N)nc5)c(F)cc34)cn2)c1` [Example 152, 6-(6-amino-3-pyridyl)-N-[1-[(3-cyanophenyl)meth-yl]pyrazol-4-yl]-5-fluoro-1H-indazole-3-carboxamide] here?
A: 12.8 nM

Q: Which Ki does the source give for `N#Cc1cccc(Cn2cc(NC(=O)c3n[nH]c4cc(-c5cccnc5)c(F)cc34)cn2)c1` [Example 153, N-[1-[(3-cyanophenyl)meth-yl]pyrazol-4-yl]-5-fluoro-6-(3-pyridyl)-1H-indazole-3-carboxamide] here?
A: 57.5 nM

Q: How did the Ki turn out when `N#Cc1cccc(Cn2cc(NC(=O)c3n[nH]c4cc(-c5cncnc5)c(F)cc34)cn2)c1` [Example 154, N-[1-[(3-cyanophenyl)meth-yl]pyrazol-4-yl]-5-fluoro-6-pyrimidin-5-yl-1H-indazole-3-carboxamide] was run?
A: 112 nM

Q: How did the Ki turn out when `N#Cc1cccc(Cn2cc(NC(=O)c3n[nH]c4cc(-c5cc[nH]n5)c(F)cc34)cn2)c1` [Example 155, N-[1-[(3-cyanophenyl)meth-yl]pyrazol-4-yl]-5-fluoro-6-(1H-pyrazol-3-yl)-1H-indazole-3-carboxamide] was run?
A: 99.9 nM

Q: How did the Ki turn out when `Cc1cc2c(C(=O)Nc3cnn(Cc4cccc(C#N)c4)c3)n[nH]c2cc1-c1cc[nH]n1` [Example 156, N-[1-[(3-cyanophenyl)meth-yl]pyrazol-4-yl]-5-methyl-6-(1H-pyrazol-3-yl)-1H-indazole-3-carboxamide] was run?
A: 80.8 nM

Q: With `CN(C)CCC(c1ccccc1)n1cc(NC(=O)c2n[nH]c3cc(-c4cccnc4)ccc23)cn1` (centres unmarked) [Example 157, N-[1-[3-(dimethylamino)-1-phenyl-propyl]pyrazol-4-yl]-6-(3-pyridyl)-1H-indazole-3-carboxamide] as the compound, how does the Ki read?
A: 7.81 nM

Q: `O=C(Nc1cnn(Cc2csc(N3CCC(O)C3)n2)c1)c1n[nH]c2cc(-c3cn[nH]c3)ccc12` (centres unmarked) [Example 158, N-[1-[[2-(3-hydroxypyrrolidin-1-yl)thiazol-4-yl]methyl]pyrazol-4-yl]-6-(1H-pyrazol-4-yl)-1H-indazole-3-carboxamide] was tested. Which Ki did it give?
A: 3.93 nM

Q: With `O=C(Nc1cnn(Cc2csc(N3CCC(O)CC3)n2)c1)c1n[nH]c2cc(-c3cn[nH]c3)ccc12` [Example 159, N-[1-[[2-(4-hydroxy-1-piperidyl)thiazol-4-yl]methyl]pyrazol-4-yl]-6-(1H-pyrazol-4-yl)-1H-indazole-3-carboxamide] as the compound, how does the Ki read?
A: 3.11 nM

Q: For `O=C(Nc1cnn(Cc2csc(C3CCNCC3)n2)c1)c1n[nH]c2cc(-c3cn[nH]c3)ccc12` [Example 160, N-[1-[[2-(4-piperidyl)thiazol-4-yl]methyl]pyrazol-4-yl]-6-(1H-pyrazol-4-yl)-1H-indazole-3-carboxamide], which Ki is on record?
A: 4.65 nM

Q: For `O=C(Nc1cnn(Cc2cccc(N3CCC(O)C3)c2)c1)c1n[nH]c2cc(-c3cn[nH]c3)ccc12` (centres unmarked) [Example 161, N-[1-[[3-(3-hydroxypyrrolidin-1-yl)phenyl]meth-yl]pyrazol-4-yl]-6-(1H-pyrazol-4-yl)-1H-indazole-3-carboxamide], which Ki is on record?
A: 1.15 nM
